According to patent US20130165368A1, “ANTIMICROBIAL COMPOUNDS” (priority 2010, published 2013):
Where two headings read alike, the source gives them in different places.

Legend:
Type in all cases: cell-based
Enterococcus faecium = test: MIC agar dilution, micro-organism 16 (7171); details: Enterococcus faecium 7171
Description: (§1) Throughout the period of testing the microbial strains were subcultured and incubated for 18-20 hours at 37° C. on a weekly basis. Horse blood agar plates were used to sustain the micro-organisms both prior to and throughout testing. The alkoxylated alkanols listed in Table II below were obtained (these are obtainable from Sigma-Aldrich Company Ltd, Dorset, England), each having a GC purity of at least 97%.
(§2) Molar equivalent concentrations were used to allow comparison between compounds of differing molecular mass. Due to weighing difficulties, any compound in solid form was melted in a water bath prior to dilution. To make ten-times strength concentrations, which takes into account agar dilution, 0.0352 mmol of each compound was weighed into plastic universal bottles and 4 mL of sterile distilled water (SDW) was added. To produce a homogenous emulsion the universals were vortexed; once achieved the emulsions were serial diluted by adding 2 mL to 2 mL of SDW.
(§3) Myristyl alcohol and lauryl alcohol were re-weighed and dissolved in 25 μL of the polar solvent 1-methyl-2-pyrrolidone (M6762; Sigma-Aldrich) in sterile glass universals due to an inability to achieve an even suspension. To maintain an even emulsion in the presence of SDW 37.5 μL of the non-ionic detergent Tween 20 (P1379, Sigma-Aldrich) was also added. 3.9375 mL of SDW was added to these, to create a 4 mL volume; they were vortexed and diluted as before.
(§4) For every 100 mL of Isosensitest agar (IST) (CM0471; Oxoid, Basingstoke, England), 3.1 g of the IST powder was added to 100 mL SDW (as per manufacturer's instructions) and sterilised for 15 minutes at 121° C. Once sterilised, the molten agar was cooled to 50° C. in a water-bath. Subsequently 4.8 g of CCEY powder (BC2160; Bioconnections, Wetherby, England), also known as Brazier's medium, was added to 100 mL SDW for every 100 mL of agar needed. This was then sterilised for 15 minutes at 121° C. Once sterilised the molten agar was cooled to 50° C. in a water-bath and 4 mL of egg-yolk emulsion (S2073; TCS Biosciences Ltd, Buckingham, United Kingdom) and 1 mL of lysed defibrinated horse blood (HB035; TCS Biosciences Ltd, Buckingham, United Kingdom) were also added for every 100 mL needed. Horse blood lysis is achieved by dilution to half concentration with SDW; when fully lysed the mixture will turn dark red in colour.
(§5) 18 mL agar was added to each universal and then poured into sterile Petri dishes. This step creates a 1/10 dilution resulting in agar plates of the required strength. Control plates for each set of strains were created by adding 18 mL of agar to 2 mL of SDW.
(§6) Suspensions of each bacterial species were prepared with a density equal to that of a 0.5 McFarland standard using a densitometer. All suspensions were made using sterile distilled water and fresh 18-20 hour cultures. As a 0.5 McFarland standard contains 1.5×10^8 CFU/mL and the multipoint inoculators applies 1 μL spots of liquid, each bacterial suspension was diluted 1/15 (20 μL suspension to 280 μL sterile distilled water).
(§7) Bacterial suspensions were prepared from fresh 18-24 hour cultures as previously described. 1 μL of each strain was inoculated onto all 100 agar plates containing a different chemical concentration and the 2 control plates. This was done using a multipoint inoculator which inoculates 20 strains per plate. All plates were incubated for 22 hours at 37° C. in aerobic conditions.
(§8) Each plate was examined for bacterial growth after 22 and 48 hours, with each being incubated in between examinations. A positive result was recorded as growth of ≧10 colonies. A negative result was recorded as growth of <10 colonies as this is equivalent to 99.9% inhibition. The lowest concentration of chemical that inhibited growth was recorded as the MIC. The results are recorded in Table IV below, where the numbers are quoted in mmol/L. […]

Staphylococcus aureus = test: MIC agar dilution, micro-organism 13 (6571); details: Staphylococcus aureus 6571
Description: as §1, §2, §3, §4, §5, §6, §7, §8

Enterococcus faecalis = test: MIC agar dilution, micro-organism 17 (775); details: Enterococcus faecalis 775
Description: as §1, §2, §3, §4, §5, §6, §7, §8

Bacillus subtilis = test: MIC agar dilution, micro-organism 18 (9372); details: Bacillus subtilis 9372
Description: as §1, §2, §3, §4, §5, §6, §7, §8

Escherichia coli = test: MIC agar dilution, micro-organism 1 (10418); details: Escherichia coli 10418
Description: as §1, §2, §3, §4, §5, §6, §7, §8

Candida albicans = test: MIC agar dilution, micro-organism 19 (90028); details: Candida albicans 90028
Description: as §1, §2, §3, §4, §5, §6, §7, §8

Steptococcus pyogenes = test: MIC agar dilution, micro-organism 11 (8306); details: Steptococcus pyogenes 8306
Description: as §1, §2, §3, §4, §5, §6, §7, §8

Providencia rettgeri = test: MIC agar dilution, micro-organism 3 (7475); details: Providencia rettgeri 7475
Description: as §1, §2, §3, §4, §5, §6, §7, §8

Listeria monocytogenes = test: MIC agar dilution, micro-organism 15 (11994); details: Listeria monocytogenes 11994
Description: as §1, §2, §3, §4, §5, §6, §7, §8

Candida glabrata = test: MIC agar dilution, micro-organism 20 (3943); details: Candida glabrata 3943
Description: as §1, §2, §3, §4, §5, §6, §7, §8

[1] = system: Staphylococcus aureus (MRSA); test: MIC agar dilution, micro-organism 12 (11939); details: Staphylococcus aureus (MRSA) 11939
Description: as §1, §2, §3, §4, §5, §6, §7, §8

[2] = system: Staphylococcus epidermidis; test: MIC agar dilution, micro-organism 14 (11047); details: Staphylococcus epidermidis 11047
Description: as §1, §2, §3, §4, §5, §6, §7, §8

[3] = Staphylococcus aureus, 22 h, 22 hrs, read-out: MIC
[4] = Staphylococcus aureus, 48 h, 48 hrs, read-out: MIC
[5] = Nakaseomyces glabratus, 22 h, 22 hrs, read-out: MIC
[6] = Nakaseomyces glabratus, 48 h, 48 hrs, read-out: MIC
[7] = Staphylococcus aureus, MRSA, 22 h, 22 hrs, read-out: MIC
[8] = Staphylococcus aureus, MRSA, 48 h, 48 hrs, read-out: MIC

Measured: MIC

CCCCCCCCCCCCCCCCOCCOCCO [C2]
880 µM: Steptococcus pyogenes; 22 hrs | Candida glabrata; 22 hrs
>880 µM: Enterococcus faecium; 22 hrs | Enterococcus faecium; 48 hrs | Staphylococcus aureus; 22 hrs | Staphylococcus aureus; 48 hrs | Enterococcus faecalis; 22 hrs | Enterococcus faecalis; 48 hrs | Bacillus subtilis; 22 hrs | Bacillus subtilis; 48 hrs | Escherichia coli; 22 hrs | Escherichia coli; 48 hrs | Candida albicans; 22 hrs | Candida albicans; 48 hrs | Steptococcus pyogenes; 48 hrs | Providencia rettgeri; 22 hrs | Providencia rettgeri; 48 hrs | Listeria monocytogenes; 22 hrs | Listeria monocytogenes; 48 hrs | Candida glabrata; 48 hrs | [1]; 22 hrs | [1]; 48 hrs | [2]; 22 hrs | [2]; 48 hrs

CCCCCCCCCCCCO [L0, 1-Dodecanol, reference compound]
> 880 µM: Enterococcus faecium; 22 hrs, read-out: MIC | Enterococcus faecium; 48 hrs, read-out: MIC | Enterococcus faecalis; 22 hrs, read-out: MIC | Enterococcus faecalis; 48 hrs, read-out: MIC | Bacillus subtilis; 22 hrs, read-out: MIC | Bacillus subtilis; 48 hrs, read-out: MIC | Escherichia coli; 22 hrs, read-out: MIC | Escherichia coli; 48 hrs, read-out: MIC | Candida albicans; 22 hrs, read-out: MIC | Candida albicans; 48 hrs, read-out: MIC | Providencia rettgeri; 22 hrs, read-out: MIC | Providencia rettgeri; 48 hrs, read-out: MIC | Listeria monocytogenes; 22 hrs, read-out: MIC | Listeria monocytogenes; 48 hrs, read-out: MIC | [2]; 22 hrs, read-out: MIC | [2]; 48 hrs, read-out: MIC
440 µM: Staphylococcus aureus; [3] | Steptococcus pyogenes; 22 h, 22 hrs, read-out: MIC | Candida glabrata; [5] | [1]; [7]
≥ 880 µM: Staphylococcus aureus; [4] | Steptococcus pyogenes; 48 h, 48 hrs, read-out: MIC | Candida glabrata; [6] | [1]; [8]

CCCCCCCCCCCCCCO [M0, 1-Tetradecanol, reference compound]
220 µM: Enterococcus faecium; 48 hrs, read-out: MIC | Steptococcus pyogenes; 22 h, 22 hrs, read-out: MIC | Steptococcus pyogenes; 48 h, 48 hrs, read-out: MIC | [2]; 48 hrs, read-out: MIC
440 µM: Staphylococcus aureus; [3] | Staphylococcus aureus; [4]
> 880 µM: Enterococcus faecium; 22 hrs, read-out: MIC | Enterococcus faecalis; 22 hrs, read-out: MIC | Bacillus subtilis; 22 hrs, read-out: MIC | Bacillus subtilis; 48 hrs, read-out: MIC | Escherichia coli; 22 hrs, read-out: MIC | Escherichia coli; 48 hrs, read-out: MIC | Candida albicans; 22 hrs, read-out: MIC | Candida albicans; 48 hrs, read-out: MIC | Providencia rettgeri; 22 hrs, read-out: MIC | Providencia rettgeri; 48 hrs, read-out: MIC | Listeria monocytogenes; 22 hrs, read-out: MIC | Listeria monocytogenes; 48 hrs, read-out: MIC | Candida glabrata; [5] | Candida glabrata; [6]
110 µM: Enterococcus faecalis; 48 hrs, read-out: MIC | [1]; [7] | [1]; [8] | [2]; 22 hrs, read-out: MIC

CCCCCCCCCCCCCCOCCOCCOCCOCCOCCOCCOCCOCCO [M8, Octaethylene Glycol Monotetradecyl Ether]
440 µM: [1]; [7] | [1]; [8]
220 µM: [2]; 22 hrs, read-out: MIC | [2]; 48 hrs, read-out: MIC
55 µM: Enterococcus faecalis; 22 hrs, read-out: MIC | Enterococcus faecalis; 48 hrs, read-out: MIC | Steptococcus pyogenes; 48 h, 48 hrs, read-out: MIC
550 µM: Steptococcus pyogenes; 22 h, 22 hrs, read-out: MIC
> 880 µM: Enterococcus faecium; 22 hrs, read-out: MIC | Enterococcus faecium; 48 hrs, read-out: MIC | Escherichia coli; 22 hrs, read-out: MIC | Escherichia coli; 48 hrs, read-out: MIC | Candida albicans; 22 hrs, read-out: MIC | Candida albicans; 48 hrs, read-out: MIC | Providencia rettgeri; 22 hrs, read-out: MIC | Providencia rettgeri; 48 hrs, read-out: MIC | Listeria monocytogenes; 22 hrs, read-out: MIC | Listeria monocytogenes; 48 hrs, read-out: MIC | Candida glabrata; [5] | Candida glabrata; [6]
110 µM: Staphylococcus aureus; [3] | Staphylococcus aureus; [4] | Bacillus subtilis; 22 hrs, read-out: MIC | Bacillus subtilis; 48 hrs, read-out: MIC

CCCCCCCCCCCCCCCCCCO [S0, 1-Octadecanol, reference compound]
> 880 µM: Enterococcus faecium; 22 hrs, read-out: MIC | Enterococcus faecium; 48 hrs, read-out: MIC | Staphylococcus aureus; [3] | Staphylococcus aureus; [4] | Enterococcus faecalis; 22 hrs, read-out: MIC | Enterococcus faecalis; 48 hrs, read-out: MIC | Bacillus subtilis; 22 hrs, read-out: MIC | Bacillus subtilis; 48 hrs, read-out: MIC | Escherichia coli; 22 hrs, read-out: MIC | Escherichia coli; 48 hrs, read-out: MIC | Candida albicans; 22 hrs, read-out: MIC | Candida albicans; 48 hrs, read-out: MIC | Providencia rettgeri; 22 hrs, read-out: MIC | Providencia rettgeri; 48 hrs, read-out: MIC | Listeria monocytogenes; 22 hrs, read-out: MIC | Listeria monocytogenes; 48 hrs, read-out: MIC | [1]; [7] | [1]; [8] | [2]; 22 hrs, read-out: MIC | [2]; 48 hrs, read-out: MIC
880 µM: Steptococcus pyogenes; 22 h, 22 hrs, read-out: MIC | Steptococcus pyogenes; 48 h, 48 hrs, read-out: MIC | Candida glabrata; [5] | Candida glabrata; [6]
